In test [1] the test system is SOD1^G93A-transfected Neuro2a cells. Nature of the test: Cell viability of SOD1G93A-transfected Neuro2a cells (colorimetric assay). The class given is cell-based. As to conditions: 10 µM. From the text:
The Golgi apparatus is affected in MNs from ALS patients and in cells overexpressing mutant SOD1 forms[35]–[37]. We transiently transfected Neuro2a cells with plasmids encoding SOD1^G93A before treatment with compound 2a. […] We next determined the viability of Neuro2a cells transfected with SOD1^G93A and exposed to compound 2a using a colorimetric assay. Controls cells received LacZ plasmids. […] We observed a slight, but not significant, reduction of cell viability in […] Neuro2a cells (Fig. 3b). […] The increased cell viability provided by compound 2a could result from unknown, nonspecific off-target effects. Therefore, we used plasmids encoding VPS35 to increase/stabilize the retromer complex. […] However, this phenotype was reverted co-transfecting VPS35 and SOD1^G93A plasmids (Fig. 3c).
Having observed a marked improvement of viability in SOD1^G93A-transfected Neuro2a cells with VPS35 gain of function, we investigated the effect of VPS35 loss of function. We transfected Neuro2a cells with RNAi plasmids encoding a siRNA duplex for VPS35, to knockdown VPS35 and disrupt the retromer assembly. […] By including Sh56 plasmids in the transfection mix, we worsened this phenotype (Fig. 3d). […] We next assayed cytotoxicity by measuring lactate dehydrogenase (LDH) release with a LDH-Glo™ cytotoxicity assay. […]

A further test deals with VPS29-VPS35 heterodimer (Homo sapiens, UniProt Q96QK1+Q9UBQ0). Nature of the test: STD-NMR and WaterLogsy-NMR ligand-based binding experiments. To be noted: 2a 500 μM, VPS29-VPS35 10 μM. The procedure: We used a ligand-based NMR approach to localize the binding between compound 2a and the VPS29-VPS35 heterodimer. These techniques provide binding information without requiring any isotopic labeling of the proteins. Particularly, Saturation Transfer Difference NMR (STD-NMR)[32] and WaterLogsy-NMR (WL-NMR)[33] experiments were acquired in buffer solutions containing a large excess of compound 2a (500μM) with respect to VPS29-VPS35 (10 μM). Both STD-NMR and WL-NMR focus on the NMR signals of the ligand and utilize the magnetization transfer by the Nuclear Overhauser Effect (NOE) between protein and ligand. STD-NMR experiments are carried out by subtraction of a 1D ^1H spectrum where the protein protons are selectively irradiated (on-resonance spectrum) from a spectrum in which the protein is not saturated (off-resonance spectrum).
WL-NMR entails magnetization transfer to the ligand from either bulk water via a macromolecule, and/or the exchangeable protons and the water molecules present in the binding site. Positive peaks for proton resonances of the ligand in the WL-NMR spectrum are observed for binders in presence of the protein. […] As negative control, STD-NMR and WL-NMR experiments were performed for compound 2a in absence of the heterodimer. The absence of proton signals in the aromatic zone and the presence of negative signals in STD-NMR (Fig. 2k) and WL-NMR (Fig. 2l) spectra, respectively, confirms the binding between compound 2a and the VPS29-VPS35 heterodimer. Unfortunately, STD- and WL-NMR competition experiments between 2a and R55/1 could not be performed since the latter compound was not stable in our experimental conditions.
NMR spectra were acquired at 298K on a Bruker Avance NEO 700 MHz spectrometer equipped with a Z-gradient cryoprobe. The spectra were processed with the Bruker TOPSPIN 4.0.5 software packages. […] 1D ^1H spectra were recorded using a 1 s presaturation pulse with a B1 power of 200 Hz. […]

Another test addresses T1, VPS29 (Mus musculus, UniProt Q9QZ88).
T1 construct: endogenous in cells; host or cells: Neuro2a (ATCC CCL-131)
Put plainly: Western blot for VPS29 in treated Neuro2a cells. The class given is cell-based. As to conditions: 10 µM, 48 h, WB. The procedure:
(§1) Compound 2a increases VPS26b and VPS29 in Neuro2a […]
(§2) a,WBs forVPS26b, VPS29 and β-Tubulin in vehicle- and compound 2a-treated Neuro2a cells(10 μM, 48h, 3x10^5 cells/well).Quantitative analyses of blots (means ± SD) are shown inhistograms (control:n=4 independent wells, 2a: n=5 independent wells examined in one experiment, p<0.0001 for all the comparisons. Two-tailed Student’s test was used to determine the statisticalsignificanceof data, ***p<0.0001
(§3) (1 picture or pasted object on this page, not shown here)
Background: In western blotting, separated proteins are transferred to a membrane and probed.

The target of a further test is VPS35 (Mus musculus, UniProt Q9EQH3+Q9QZ88). Nature of the test: Western blot for VPS35 in spinal cord extracts of treated C57BL6J mice. As to conditions: 10 mg/Kg intraperitoneally daily, 1 week. More on the design: from tissue; host or cells: mouse (lumbar) spinal cord, motor neurons. The format is in vivo. The procedure:
Compounds 2a, 4a, and standard R55/1 (10 mg/Kg) were intraperitoneally injected in C57BL6J mice daily. After 1 week, mice were sacrificed, saline perfused to avoid CNS contamination by compounds in blood circulation, and SC protein extracts were assayed by WB. […] Therefore, phenyl-1,3-bis-guanylhydrazone 2a was selected as an early lead.

A further test relates to VPS26b. Nature of the test: Western blot for VPS26b in treated Neuro2a cells. The class given is cell-based. To be noted: 10 µM, 48 h, WB. The procedure: as §1, §2, §3

In the case of `NC(N)=N/N=C/c1cccc(/C=N/N=C(N)N)c1` [compound 2a, phenyl-1,3-bis-guanylhydrazone], the cell viability result in test [1] was “cell viability was restored”. Also, at VPS29-VPS35 heterodimer, the STD-NMR binding result is “interaction between the ligand and the protein complex”; the WL-NMR binding entry is given as “binds to the protein complex”. Moreover, on VPS29, the VPS29 protein levels result is “significantly increased”. In addition, the “VPS35 levels in SC extracts” value at VPS35 was “significantly increased”. Also, the VPS26b protein levels result with VPS26b was “significantly increased”.

The record behind these values is article PMC7395176, “Retromer stabilization results in neuroprotection in a model of Amyotrophic Lateral Sclerosis” (Nature Communications, 2020).
